# Measured values from ChEMBL document CHEMBL5579899, “Discovery and In Vivo Exploration of 1,3,4-Oxadiazole and α-Fluoroacrylate Containing IL-17 Inhibitors” (J Med Chem, 2024).
# What was measured:
# [1] = Apparent permeability coefficient of the compound across apical to basolateral side in dog MDCK cells by high-throughput analysis; format: ADME, cell-based, Canis lupus familiaris
# [2] = Inhibition of biotinylated human IL-17A/AF647-labeled human IL-17RA protein-protein interaction preincubated for 30 mins with compound followed by addition of AF647-labeled human IL-17RA incubated for 90 min by TR-FRET assay
# [3] = Inhibition of IL-6 production in IL-17/TNF-alpha stimulated human NHDF cells incubated for 24 hrs by ELISA; format: functional, cell-based; conditions: 24 h
# [4] = Lipophilicity, logD of compound at pH 7.4; format: physicochemical; conditions: buffer
# [5] = Equilibrium solubility of compound […] at pH 6.8 by high-throughput analysis; format: physicochemical
# [6] = Metabolic stability in rat liver microsomes assessed as intrinsic clearance; format: ADME, Microsome; conditions: read-out: CLH
# [7] = Metabolic stability in human liver microsomes assessed as intrinsic clearance; format: ADME, Microsome; conditions: read-out: CLH
Structure (SMILES),Papp A→B [1] [×10⁻⁶ cm/s],IC50 [2] [nM],IC50 [3] [nM],logD [4],solubility [5] [µM],microsomal CLint [6] [µL/min/mg],microsomal CLint [7] [µL/min/mg]
C/C=C(\F)C(=O)N[C@H](c1cn2ncc([C@@H](COC)N3C[C@@H](C(F)(F)F)NC3=O)cc2n1)C1CCC(F)(F)CC1,9.7,19,7,3,700,166,90
COC[C@H](c1cnn2cc([C@@H](Nc3ncc(C4CC4)o3)C3CCC(F)(F)CC3)nc2c1)N1C[C@@H](C(F)(F)F)NC1=O,17,80,64,> 4.7,270,> 1000,261
COC[C@H](c1cnn2cc([C@@H](Nc3nnc(C)n3C)C3CCC(F)(F)CC3)nc2c1)N1C[C@@H](C(F)(F)F)NC1=O,0.4,1820,2690,1.5,> 750,13,18
COC[C@H](c1cnn2cc([C@@H](Nc3nnc(C)s3)C3CCC(F)(F)CC3)nc2c1)N1C[C@@H](C(F)(F)F)NC1=O,1.3,61,45,2.5,610,75,50
COC[C@H](c1cnn2cc([C@@H](Nc3cc(OC)ncn3)C3CCC(F)(F)CC3)nc2c1)N1C[C@@H](C(F)(F)F)NC1=O,11,735,493,3.2,700,77,31
COC[C@H](c1cnn2cc([C@@H](Nc3nc(C(C)(F)F)no3)C3CCC(F)(F)CC3)nc2c1)N1C[C@@H](C(F)(F)F)NC1=O,9.7,116,107,3.5,200,18,18
COC[C@H](c1cnn2cc([C@@H](NC(=O)C(C)(F)F)C3CCC(F)(F)CC3)nc2c1)N1C[C@@H](C(F)(F)F)NC1=O,5.5,85,74,2.5,> 750,26,15

# Continued by falling IC50 [2], values first:
Papp A→B [1] [×10⁻⁶ cm/s],IC50 [2] [nM],IC50 [3] [nM],logD [4],solubility [5] [µM],microsomal CLint [6] [µL/min/mg],microsomal CLint [7] [µL/min/mg],Structure (SMILES)
0.5,85,49,1.9,> 750,28,23,COC[C@H](c1cnn2cc([C@@H](Nc3nnc(C)o3)C3CCC(F)(F)CC3)nc2c1)N1C[C@@H](C(F)(F)F)NC1=O
3.3,62,75,2.9,600,156,42,COC[C@H](c1cnn2cc([C@@H](Nc3cc(C)on3)C3CCC(F)(F)CC3)nc2c1)N1C[C@@H](C(F)(F)F)NC1=O
20,30,27,3.7,130,33,49,COC[C@H](c1cnn2cc([C@@H](Nc3noc(C(C)(F)F)n3)C3CCC(F)(F)CC3)nc2c1)N1C[C@@H](C(F)(F)F)NC1=O
8,25,15,3.4,270,< 25,< 10,COC[C@H](c1cnn2cc([C@@H](Nc3nnc(C(F)(F)F)o3)C3CCC(F)(F)CC3)nc2c1)N1C[C@@H](C(F)(F)F)NC1=O
25,19,8,3.2,340,> 1000,161,COC[C@H](c1cnn2cc([C@@H](NC(=O)C(F)=C(C)C)C3CCC(F)(F)CC3)nc2c1)N1C[C@@H](C(F)(F)F)NC1=O
